One test addresses human ENPP2 (Homo sapiens (Human), UniProt Q13822). The test can be described thus: Measurement of human ENPP2 inhibitory activity. It is filed as biochemical. The following applies: 16:0-LPC substrate, 37° C., 24 hours; for inhibition at 1 µM: 1 μM test compound, read-out: ENPP2 inhibition rate(%) (1 μM). How it is done: 10 μL of a test compound solution (10% dimethyl sulfoxide) at each concentration and 40 μL of a 5 μg/mL human ENPP2 solution (buffer A: 100 mmol/L Tris-HCl (pH 9.0), 500 mmol/L NaCl, 5 mmol/L MgCl2, 0.05% Triton X-100) were mixed, 50 μL of a 2 mmol/L 16:0-lysophosphatidylcholine (LPC) solution (buffer A) was further added to react at 37° C. for 24 hours. Subsequently, to 10 μL of the reaction solution was added 90 μL of a measurement buffer (0.5 mmol/L aminoantipyrine, 0.3 mmol/L N-ethyl-N-(2-hydroxy-3-sulfopropyl)-3-methylaniline, 1 U/mL peroxidase, 3 U/mL choline oxidase, 100 mmol/L Tris-HCl (pH 8.5), 5 mmol/L CaCl2) to react at 37° C. for 20 minutes, and spectrophotometric determination was performed at 555 nm.
Using a standard curve, a choline production amount (enzyme activity) in each test compound was calculated, and the inhibitory activity rate of each test compound was calculated, wherein the enzyme activity in a positive control to which a test compound is not added, was a 0% inhibition rate, and the enzyme activity in a negative control to which a test compound and human ENPP2 are not added, were 100% inhibition. Further, concerning the present compounds shown in Table 3, an IC50 value was calculated from inhibitory activity rate at each concentration.

In a further test the test system is SD male rat. Kind of test: Measurement of urethra internal pressure in rat under anesthesia. It is filed as in vivo. The following applies: rat under urethane anesthesia. The source says: A SD male rat (Crl: CD(SD), Charles River Laboratories Japan, Inc., 7-10 weeks old) was anesthetized by subcutaneous administration of 1.5 g/kg urethane at a back of a neck. After neck median incision, a jugular vein catheter for intravenous administration was inserted. A lower abdominal part was median incised, and a urethra was ligated at around pubis. A urethral catheter for measuring a urethra internal pressure, equipped with a collar at a tip and filled with a physiological saline was inserted into a urethra through an incised bladder top, and ligation-fixed at a bladder neck part. The urethral catheter was connected to a pressure transducer (manufactured by Nihon Kohden Corporation), and a urethra internal pressure was measured. […] A urethra internal pressure reduction rate (%) was calculated based on a urethra internal pressure after compound administration, wherein a value obtained by subtracting a postmortem baseline value (minimum value of urethra internal pressure for 10 minutes after administration of somnopentyl) from a urethra internal pressure value before compound administration (0 minute) was 100%.

Counter-ions that a name gives are not always drawn.

Regarding `O=C(O)CCCCC(=O)N1CCc2c(n(CCCc3ccccc3)c3ccccc23)C1` [Example 3, 6-oxo-6-[9-(3-phenylpropyl)-1,3,4,9-tetrahydro-2H-beta-carbolin-2-yl]hexanoic acid], at human ENPP2, the 50% inhibitory concentration (IC50) is 34 nM. Further, the urethra internal pressure result in the test on SD male rat (intravenous 0.1, 0.3, 1.0 mg/kg, FIG. 1) was “significantly reduced a urethra internal pressure”.

In the case of `O=C(C[C@H]1CC[C@H](C(=O)O)CC1)N1CCc2c(n(Cc3ccc(Cl)cc3F)c3ncccc23)C1` [Example 31(24), trans-4-{2-[9-(4-chloro-2-fluorobenzyl)-5,6,8,9-tetrahydro-7H-pyrido[4′,3′:4,5]pyrrolo[2,3-b]pyridin-7-yl]-2-oxoethyl}cyclohexanecarboxylic acid], it took 5 nM to reach half-maximal inhibition at human ENPP2 (IC50). In addition, the urethra internal pressure entry with SD male rat (intravenous 0.03, 0.1, 0.3 mg/kg, FIG. 2) is recorded as “significantly reduced a urethra internal pressure”.

`O=C(CC12CCC(C(=O)O)(CC1)C2)N1CCc2c(n(Cc3ccc(F)cc3F)c3ncccc23)C1` [Example 31(182), 4-{2-[9-(2,4-difluorobenzyl)-5,6,8,9-tetrahydro-7H-pyrido[4′,3′:4,5]pyrrolo[2,3-b]pyridin-7-yl]-2-oxoethyl}bicyclo[2.2.1]heptane-1-carboxylic acid]: the inhibition at 1 µM on human ENPP2 was found to be 98.9%.

With `O=C(CC12CCC(C(=O)O)(CC1)C2)N1CCc2c(n(Cc3ccc(F)cc3)c3ncccc23)C1` [Example 31(188), 4-{2-[9-(4-fluorobenzyl)-5,6,8,9-tetrahydro-7H-pyrido[4′,3′:4,5]pyrrolo[2,3-b]pyridin-7-yl]-2-oxoethyl}bicyclo[2.2.1]heptane-1-carboxylic acid], the inhibition at 1 µM on human ENPP2 was found to be 98.8%.

Take `O=C(CC12CCC(C(=O)O)(CC1)C2)N1CCc2c(n(Cc3ccc(Cl)cc3)c3ncccc23)C1` [Example 31(189), 4-{2-[9-(4-chlorobenzyl)-5,6,8,9-tetrahydro-7H-pyrido[4′,3′:4,5]pyrrolo[2,3-b]pyridin-7-yl]-2-oxoethyl}bicyclo[2.2.1]heptane-1-carboxylic acid]: the inhibition at 1 µM on human ENPP2 was 99.3%.

At human ENPP2, `O=C(O)C1CCCN(CC(=O)N2CCc3c(n(Cc4cccc(F)c4)c4ncccc34)C2)C1` (centres unmarked) [Example 35(2), 1-{2-[9-(3-fluorobenzyl)-5,6,8,9-tetrahydro-7H-pyrido[4′,3′:4,5]pyrrolo[2,3-b]pyridin-7-yl]-2-oxoethyl}-3-piperidinecarboxylic acid] returned an IC50 of 110 nM. This counts as sub-micromolar.

In the case of `C[C@@H]1CN(CC(=O)N2CCc3c(n(Cc4ccc(Cl)s4)c4ccccc34)C2)C[C@H](C)N1CC(=O)O` [Example 35(122), rel-[(2R,6S)-4-(2-{9-[(5-chloro-2-thienyl)methyl]-1,3,4,9-tetrahydro-2H-beta-carbolin-2-yl}-2-oxoethyl)-2,6-dimethyl-1-piperazinyl]acetic acid dihydrochloride], 35 nM corresponded to half-maximal inhibition at human ENPP2 (IC50). This IC50 lies about 3.1-fold lower than the previous one.

Take `C[C@]1(C(=O)O)CC[C@H](CC(=O)N2CCc3c(n(Cc4ccc(F)cc4)c4ncccc34)C2)CC1` [Example 48(8), trans-4-{2-[9-(4-fluorobenzyl)-5,6,8,9-tetrahydro-7H-pyrido[4′,3′:4,5]pyrrolo[2,3-b]pyridin-7-yl]-2-oxoethyl}-1-methylcyclohexanecarboxylic acid]: the IC50 against human ENPP2 came out at 26 nM.

In turn, `C[C@]1(C(=O)O)CC[C@H](CC(=O)N2CCc3c(n(Cc4ccc(Cl)cc4)c4ncccc34)C2)CC1` [Example 48(9), trans-4-{2-[9-(4-chlorobenzyl)-5,6,8,9-tetrahydro-7H-pyrido[4′,3′:4,5]pyrrolo[2,3-b]pyridin-7-yl]-2-oxoethyl}-1-methylcyclohexanecarboxylic acid] yielded an IC50 at human ENPP2 of 25 nM.

Regarding `COc1cc(CC(=O)N2CCc3c(n(Cc4cc(F)cc(F)c4)c4ncccc34)C2)ccc1C(=O)O` [Example 51(23), 4-{2-[9-(3,5-difluorobenzyl)-5,6,8,9-tetrahydro-7H-pyrido[4′,3′:4,5]pyrrolo[2,3-b]pyridin-7-yl]-2-oxoethyl}-2-methoxybenzoic acid], the inhibition at 1 µM at human ENPP2 turned out to be 96.2%.

Turning to `COc1cc(CC(=O)N2CCc3c(n(Cc4cc(F)c(F)cc4F)c4ncccc34)C2)ccc1C(=O)O` [Example 51(24), 2-methoxy-4-{2-oxo-2-[9-(2,4,5-trifluorobenzyl)-5,6,8,9-tetrahydro-7H-pyrido[4′,3′:4,5]pyrrolo[2,3-b]pyridin-7-yl]ethyl}benzoic acid], the inhibition at 1 µM on human ENPP2 is 97.5%.

As for `Cc1cc(CC(=O)N2CCc3c(n(Cc4csc(Cl)c4)c4ncccc34)C2)ccc1C(=O)O` [Example 51(48), 4-(2-{9-[(5-chloro-3-thienyl)methyl]-5,6,8,9-tetrahydro-7H-pyrido[4′,3′:4,5]pyrrolo[2,3-b]pyridin-7-yl}-2-oxoethyl)-2-methylbenzoic acid], half-maximal inhibition at human ENPP2 (IC50) was put at 7.8 nM.

Source of the values: US9006246B2, “Tetrahydrocarboline derivative” (Ono Pharmaceutical Co., Ltd., priority 2010, dated 2015).
